Data from ChEMBL document CHEMBL4196242, “Irpeksins A-E, 1,10- seco-Eburicane-Type Triterpenoids from the Medicinal Fungus Irpex lacteus and Their Anti-NO Activity” (J Nat Prod, 2018).
pIC50: −log10 of the molar value.

tested on: RAW264.7; experiment: Inhibition of LPS-induced nitric oxide production in mouse RAW264.7 cells after 18 hrs by Griess assay; format: functional, cell-based; settings: RAW264.7, 18 h

| Structure (SMILES) | pIC50 |
| --- | --- |
| CC1=C(C)[C@@]2(C[C@@H](C)[C@H]3[C@H](C[C@@]4(C)c5ccc(C(C)(C)/C=C/CO)c(C)c5C(=O)C[C@]34C)O2)OC1=O | 5.66 |
| CC1=C(C)[C@@]2(C[C@@H](C)[C@H]3[C@H](C[C@@]4(C)c5ccc(C(C)(C)CCCO)c(C)c5C(=O)C[C@]34C)O2)OC1=O | 4.89 |
| CC1=C(C)[C@@]2(C[C@@H](C)[C@H]3[C@H](C[C@@]4(C)c5ccc(C(C)(C)/C=C/CO)c(C)c5O[C@H](O)C[C@]34C)O2)OC1=O | 4.71 |
| CC1=C(C)[C@@]2(C[C@@H](C)[C@H]3[C@H](C[C@@]4(C)c5ccc(C(C)(C)/C=C/C(=O)O)c(C)c5C(=O)C[C@]34C)O2)OC1=O | 4.75 |
| CC1=C(C)[C@@]2(C[C@@H](C)[C@H]3[C@H](C[C@@]4(C)c5ccc(C(C)(C)/C=C/C(=O)O)c(C)c5[C@H](O)C[C@]34C)O2)OC1=O | 5.35 |
| CNC(=N)NCCC[C@H](N)C(=O)O [TILARGININE] | 4.48 |
